# Measurements taken from ChEMBL document CHEMBL1177794, “Broad spectrum alkynyl inhibitors of T315I Bcr-Abl” (Bioorg Med Chem Lett, 2010).
# Key:
# [1] = molecular target: Casein kinase II subunit alpha' (Homo sapiens) (UniProt P19784); assay: Inhibition of CSNK2A2 at 10 uM; conditions: values are per cent of control
# [2] = molecular target: Serine/threonine-protein kinase Chk2 (Homo sapiens) (UniProt O96017); assay: Inhibition of CHEK2 at 10 uM; values are per cent of control
# [3] = molecular target: Mitogen-activated protein kinase kinase kinase 1 (Homo sapiens) (UniProt Q13233); assay: Inhibition of MAP3K1 at 10 uM; conditions: values are per cent of control
# [4] = molecular target: 5'-AMP-activated protein kinase catalytic subunit alpha-1 (Homo sapiens) (UniProt Q13131); assay: Inhibition of AMPK-alpha1 at 10 uM; conditions: values are per cent of control
# [5] = molecular target: Tyrosine-protein kinase ABL1 (Homo sapiens) (UniProt P00519); assay: Inhibition of non phosphorylated ABL1 at 10 uM; conditions: values are per cent of control
# [6] = molecular target: Serine/threonine-protein kinase BRSK2 (Homo sapiens) (UniProt Q8IWQ3); assay: Inhibition of BRSK2 at 10 uM; values are per cent of control
# Chain of Serine/threonine-protein kinase BRSK2 (Homo sapiens) (Q8IWQ3 whole entry): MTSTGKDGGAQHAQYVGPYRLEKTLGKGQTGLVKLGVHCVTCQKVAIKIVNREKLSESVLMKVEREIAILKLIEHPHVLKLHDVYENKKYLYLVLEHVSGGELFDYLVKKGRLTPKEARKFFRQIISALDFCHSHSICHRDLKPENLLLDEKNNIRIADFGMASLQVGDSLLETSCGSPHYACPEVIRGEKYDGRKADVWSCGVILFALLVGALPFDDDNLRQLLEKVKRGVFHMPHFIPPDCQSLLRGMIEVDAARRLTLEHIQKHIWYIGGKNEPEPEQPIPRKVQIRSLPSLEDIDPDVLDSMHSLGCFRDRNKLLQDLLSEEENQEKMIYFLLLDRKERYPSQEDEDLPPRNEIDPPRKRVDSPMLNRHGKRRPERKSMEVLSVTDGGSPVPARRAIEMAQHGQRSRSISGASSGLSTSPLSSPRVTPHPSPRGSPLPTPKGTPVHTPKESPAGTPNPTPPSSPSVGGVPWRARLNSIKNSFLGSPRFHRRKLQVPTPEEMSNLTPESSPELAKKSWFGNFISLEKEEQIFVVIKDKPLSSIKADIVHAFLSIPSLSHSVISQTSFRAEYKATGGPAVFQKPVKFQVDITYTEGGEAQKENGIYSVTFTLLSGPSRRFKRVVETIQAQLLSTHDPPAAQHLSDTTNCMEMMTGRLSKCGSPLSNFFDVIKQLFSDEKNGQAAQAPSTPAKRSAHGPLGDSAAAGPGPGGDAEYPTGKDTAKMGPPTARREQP
# [7] = test system: Tyrosine-protein kinase ABL1 (Homo sapiens), P00519 [F317L]; assay: Inhibition of non phosphorylated ABL1 F317L mutant at 10 uM; conditions: values are per cent of control
# [8] = molecular target: Protein kinase C eta type (Homo sapiens) (UniProt P24723); assay: Inhibition of PRKCH at 10 uM
# [9] = molecular target: Tyrosine-protein kinase JAK3 (Homo sapiens) (UniProt P52333); assay: Inhibition of JAK3 JH1 catalytic domain at 10 uM; values are per cent of control
# [10] = molecular target: Ribosomal protein S6 kinase alpha-1 (Homo sapiens) (UniProt Q15418); assay: Inhibition of RSK1 C-terminal domain2 at 10 uM
# [11] = molecular target: Mitogen-activated protein kinase kinase kinase 6 (Homo sapiens) (UniProt O95382); assay: Inhibition of ASK2 at 10 uM; conditions: values are per cent of control
# [12] = molecular target: Tyrosine-protein kinase Fgr (Homo sapiens) (UniProt P09769); assay: Inhibition of FGR at 10 uM; conditions: values are per cent of control
# [13] = molecular target: Wee1-like protein kinase 2 (Homo sapiens) (UniProt P0C1S8); assay: Inhibition of WEE2 at 10 uM; conditions: values are per cent of control
# [14] = molecular target: Serine/threonine-protein kinase 32C (Homo sapiens) (UniProt Q86UX6); assay: Inhibition of YANK3 at 10 uM; conditions: values are per cent of control
# [15] = test system: Tyrosine-protein kinase ABL1 (Homo sapiens), P00519 [T315I]; assay: Inhibition of non phosphorylated ABL1 T315I mutant at 10 uM; conditions: values are per cent of control
# [16] = molecular target: Ephrin type-B receptor 4 (Homo sapiens) (UniProt P54760); assay: Inhibition of EPHB4 at 10 uM; conditions: values are per cent of control
# [17] = test system: Epidermal growth factor receptor (Homo sapiens), P00533 [G719S]; assay: Inhibition of EGFR G719S mutant at 10 uM; values are per cent of control
# [18] = test system: Phosphatidylinositol 4,5-bisphosphate 3-kinase catalytic subunit alpha isoform (Homo sapiens), P42336 [M1043I]; assay: Inhibition of PIK3CA M1043I mutant at 10 uM
# [19] = molecular target: Atypical kinase COQ8A, mitochondrial (Homo sapiens) (UniProt Q8NI60); assay: Inhibition of ADCK3 at 10 uM; conditions: values are per cent of control
# [20] = molecular target: CDK4/Cyclin D3 (Homo sapiens) (UniProt P11802+P30281); assay: Inhibition of CDK4/cyclin D3 at 10 uM; values are per cent of control
# [21] = molecular target: Mitogen-activated protein kinase kinase kinase kinase 5 (Homo sapiens) (UniProt Q9Y4K4); assay: Inhibition of MAP4K5 at 10 uM; conditions: values are per cent of control
# [22] = molecular target: Serine/threonine-protein kinase TAO3 (Homo sapiens) (UniProt Q9H2K8); assay: Inhibition of TAOK3 at 10 uM
# Chain of Serine/threonine-protein kinase TAO3 (Homo sapiens) (Q9H2K8 whole entry): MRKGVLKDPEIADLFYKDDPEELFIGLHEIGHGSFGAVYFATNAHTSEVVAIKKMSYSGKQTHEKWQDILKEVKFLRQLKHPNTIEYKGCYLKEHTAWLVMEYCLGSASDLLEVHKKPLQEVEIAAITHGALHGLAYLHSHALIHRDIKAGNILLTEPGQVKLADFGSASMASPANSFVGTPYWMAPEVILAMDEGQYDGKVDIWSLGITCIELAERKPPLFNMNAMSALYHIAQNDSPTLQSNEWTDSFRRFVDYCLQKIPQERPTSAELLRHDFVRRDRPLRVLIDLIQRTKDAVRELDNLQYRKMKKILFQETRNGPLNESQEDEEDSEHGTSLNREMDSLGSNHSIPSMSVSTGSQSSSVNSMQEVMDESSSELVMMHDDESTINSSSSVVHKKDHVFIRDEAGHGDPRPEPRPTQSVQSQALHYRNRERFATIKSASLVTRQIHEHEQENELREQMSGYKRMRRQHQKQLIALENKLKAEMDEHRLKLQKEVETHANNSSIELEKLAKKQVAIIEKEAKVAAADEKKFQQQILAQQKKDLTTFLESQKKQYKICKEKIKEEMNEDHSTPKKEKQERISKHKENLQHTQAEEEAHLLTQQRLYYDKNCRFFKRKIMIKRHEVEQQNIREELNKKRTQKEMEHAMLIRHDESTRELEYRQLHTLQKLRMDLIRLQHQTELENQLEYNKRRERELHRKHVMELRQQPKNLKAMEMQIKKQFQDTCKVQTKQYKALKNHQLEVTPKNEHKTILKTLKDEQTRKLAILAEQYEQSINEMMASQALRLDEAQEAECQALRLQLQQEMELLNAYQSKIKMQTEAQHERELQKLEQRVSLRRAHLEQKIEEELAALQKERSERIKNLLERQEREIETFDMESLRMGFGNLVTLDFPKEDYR
# [23] = molecular target: Protein kinase C epsilon type (Homo sapiens) (UniProt Q02156); assay: Inhibition of PRKCE at 10 uM
# [24] = molecular target: Dual specificity tyrosine-phosphorylation-regulated kinase 2 (Homo sapiens) (UniProt Q92630); assay: Inhibition of DYRK2 at 10 uM; conditions: values are per cent of control
# [25] = molecular target: Serine/threonine-protein kinase OSR1 (Homo sapiens) (UniProt O95747); assay: Inhibition of OSR1 at 10 uM
# [26] = molecular target: Dual serine/threonine and tyrosine protein kinase (Homo sapiens) (UniProt Q6XUX3); assay: Inhibition of RIPK5 at 10 uM
# Chain of Dual serine/threonine and tyrosine protein kinase (Homo sapiens) (Q6XUX3 whole entry): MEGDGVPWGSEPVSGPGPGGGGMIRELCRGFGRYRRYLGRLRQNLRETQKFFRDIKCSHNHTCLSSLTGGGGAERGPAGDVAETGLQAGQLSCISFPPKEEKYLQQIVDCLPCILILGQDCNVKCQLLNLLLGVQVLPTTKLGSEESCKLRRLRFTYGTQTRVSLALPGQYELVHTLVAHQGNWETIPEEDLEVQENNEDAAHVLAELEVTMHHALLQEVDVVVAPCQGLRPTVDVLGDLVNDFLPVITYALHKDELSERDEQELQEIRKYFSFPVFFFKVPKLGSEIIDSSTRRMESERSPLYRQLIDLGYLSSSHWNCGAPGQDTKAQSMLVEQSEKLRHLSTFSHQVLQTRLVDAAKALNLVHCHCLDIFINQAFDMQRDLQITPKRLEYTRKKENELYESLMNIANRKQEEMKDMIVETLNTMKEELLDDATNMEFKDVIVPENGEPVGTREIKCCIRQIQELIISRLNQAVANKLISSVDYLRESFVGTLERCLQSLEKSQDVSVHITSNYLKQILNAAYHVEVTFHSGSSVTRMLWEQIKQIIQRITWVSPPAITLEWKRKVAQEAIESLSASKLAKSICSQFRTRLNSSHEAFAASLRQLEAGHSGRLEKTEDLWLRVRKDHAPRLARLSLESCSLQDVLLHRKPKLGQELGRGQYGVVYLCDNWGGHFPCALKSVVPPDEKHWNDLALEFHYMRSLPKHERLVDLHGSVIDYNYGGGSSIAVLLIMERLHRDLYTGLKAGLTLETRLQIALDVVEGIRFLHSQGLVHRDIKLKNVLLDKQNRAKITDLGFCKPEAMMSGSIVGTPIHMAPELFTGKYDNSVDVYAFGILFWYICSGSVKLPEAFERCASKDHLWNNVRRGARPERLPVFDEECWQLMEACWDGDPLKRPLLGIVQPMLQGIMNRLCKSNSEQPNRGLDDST
# [27] = molecular target: Tyrosine-protein kinase FRK (Homo sapiens) (UniProt P42685); assay: Inhibition of FRK at 10 uM; conditions: values are per cent of control
# Chain of Tyrosine-protein kinase FRK (Homo sapiens) (P42685 whole entry): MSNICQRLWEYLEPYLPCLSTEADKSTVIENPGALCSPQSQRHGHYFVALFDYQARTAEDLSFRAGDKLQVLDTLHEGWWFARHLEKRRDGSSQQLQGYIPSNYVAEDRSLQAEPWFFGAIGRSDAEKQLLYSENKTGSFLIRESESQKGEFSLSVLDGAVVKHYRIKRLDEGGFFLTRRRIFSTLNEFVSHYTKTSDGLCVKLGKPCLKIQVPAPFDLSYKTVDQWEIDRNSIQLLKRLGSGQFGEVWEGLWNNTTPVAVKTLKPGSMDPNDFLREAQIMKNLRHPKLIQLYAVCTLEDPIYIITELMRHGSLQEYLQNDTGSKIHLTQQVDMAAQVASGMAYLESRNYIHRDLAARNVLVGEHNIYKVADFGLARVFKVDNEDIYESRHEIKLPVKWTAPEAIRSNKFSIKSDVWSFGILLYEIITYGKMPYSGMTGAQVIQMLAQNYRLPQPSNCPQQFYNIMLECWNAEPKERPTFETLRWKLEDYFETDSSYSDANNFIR
# [28] = molecular target: Muscle, skeletal receptor tyrosine-protein kinase (Homo sapiens) (UniProt O15146); assay: Inhibition of MUSK at 10 uM
# [29] = molecular target: Citron Rho-interacting kinase (Homo sapiens) (UniProt O14578); assay: Inhibition of CIT at 10 uM; values are per cent of control
# Chain of Citron Rho-interacting kinase (Homo sapiens) (O14578 whole entry): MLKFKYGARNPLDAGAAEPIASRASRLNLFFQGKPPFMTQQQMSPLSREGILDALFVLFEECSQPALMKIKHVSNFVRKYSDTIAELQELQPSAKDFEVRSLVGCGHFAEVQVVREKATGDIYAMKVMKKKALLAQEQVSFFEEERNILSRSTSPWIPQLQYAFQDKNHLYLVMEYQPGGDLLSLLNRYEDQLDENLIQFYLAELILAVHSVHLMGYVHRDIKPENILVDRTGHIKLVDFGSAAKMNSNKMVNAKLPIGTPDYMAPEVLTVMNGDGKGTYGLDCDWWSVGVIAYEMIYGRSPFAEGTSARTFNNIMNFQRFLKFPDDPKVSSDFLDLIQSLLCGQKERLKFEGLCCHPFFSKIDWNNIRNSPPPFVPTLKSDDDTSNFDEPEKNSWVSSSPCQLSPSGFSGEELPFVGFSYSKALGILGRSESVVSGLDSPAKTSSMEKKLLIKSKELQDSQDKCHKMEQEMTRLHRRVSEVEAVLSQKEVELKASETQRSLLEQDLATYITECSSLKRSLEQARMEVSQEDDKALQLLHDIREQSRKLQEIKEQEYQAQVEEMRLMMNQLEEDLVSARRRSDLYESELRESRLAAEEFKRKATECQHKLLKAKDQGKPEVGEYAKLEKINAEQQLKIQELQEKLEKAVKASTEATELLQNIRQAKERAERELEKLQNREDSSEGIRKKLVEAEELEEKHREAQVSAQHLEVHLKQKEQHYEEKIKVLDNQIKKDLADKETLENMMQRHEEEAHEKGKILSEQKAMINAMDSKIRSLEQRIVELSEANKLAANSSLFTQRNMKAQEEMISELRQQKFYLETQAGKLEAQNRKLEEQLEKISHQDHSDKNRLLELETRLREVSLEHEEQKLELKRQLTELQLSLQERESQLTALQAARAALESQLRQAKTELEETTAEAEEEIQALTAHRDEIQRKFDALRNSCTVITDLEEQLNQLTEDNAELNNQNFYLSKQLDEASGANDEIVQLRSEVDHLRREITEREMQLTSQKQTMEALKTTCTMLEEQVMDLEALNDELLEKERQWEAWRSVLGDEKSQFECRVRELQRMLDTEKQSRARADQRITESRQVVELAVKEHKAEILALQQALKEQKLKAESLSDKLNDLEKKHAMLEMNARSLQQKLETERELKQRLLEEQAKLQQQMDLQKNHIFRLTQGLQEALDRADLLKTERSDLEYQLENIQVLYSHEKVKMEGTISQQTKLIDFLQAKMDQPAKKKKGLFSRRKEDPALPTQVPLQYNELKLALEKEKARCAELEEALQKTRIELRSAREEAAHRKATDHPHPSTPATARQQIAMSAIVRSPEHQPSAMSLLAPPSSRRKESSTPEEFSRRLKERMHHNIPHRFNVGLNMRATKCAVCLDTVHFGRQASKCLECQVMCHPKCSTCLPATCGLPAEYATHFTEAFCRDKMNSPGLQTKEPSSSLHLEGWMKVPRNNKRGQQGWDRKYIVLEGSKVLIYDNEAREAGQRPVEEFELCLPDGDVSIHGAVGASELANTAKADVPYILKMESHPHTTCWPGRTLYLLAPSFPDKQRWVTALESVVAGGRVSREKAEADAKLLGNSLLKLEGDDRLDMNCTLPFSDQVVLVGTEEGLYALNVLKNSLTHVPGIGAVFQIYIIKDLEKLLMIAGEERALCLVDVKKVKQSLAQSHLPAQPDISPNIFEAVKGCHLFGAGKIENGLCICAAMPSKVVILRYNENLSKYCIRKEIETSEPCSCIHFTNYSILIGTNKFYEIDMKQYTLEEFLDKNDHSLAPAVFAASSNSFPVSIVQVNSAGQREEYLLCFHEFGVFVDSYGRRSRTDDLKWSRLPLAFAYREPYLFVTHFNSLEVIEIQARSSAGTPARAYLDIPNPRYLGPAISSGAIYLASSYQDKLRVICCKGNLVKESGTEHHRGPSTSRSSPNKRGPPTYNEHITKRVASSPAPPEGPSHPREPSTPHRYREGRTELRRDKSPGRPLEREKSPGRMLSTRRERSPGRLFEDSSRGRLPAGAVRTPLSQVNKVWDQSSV
# [30] = molecular target: Mitogen-activated protein kinase kinase kinase 5 (Homo sapiens) (UniProt Q99683); assay: Inhibition of ASK1 at 10 uM; conditions: values are per cent of control
# [31] = test system: Phosphatidylinositol 4,5-bisphosphate 3-kinase catalytic subunit alpha isoform (Homo sapiens), P42336 [E545K]; assay: Inhibition of PIK3CA E545K mutant at 10 uM
# [32] = molecular target: Cyclin-G-associated kinase (Homo sapiens) (UniProt O14976); assay: Inhibition of GAK at 10 uM; conditions: values are per cent of control
# [33] = molecular target: Serine/threonine-protein kinase TAO1 (Homo sapiens) (UniProt Q7L7X3); assay: Inhibition of TAOK1 at 10 uM
# [34] = molecular target: Cyclin-dependent kinase 3 (Homo sapiens) (UniProt Q00526); assay: Inhibition of CDK3 at 10 uM; values are per cent of control
# [35] = molecular target: Receptor-interacting serine/threonine-protein kinase 2 (Homo sapiens) (UniProt O43353); assay: Inhibition of RIPK2 at 10 uM; conditions: values are per cent of control
# [36] = molecular target: Serine/threonine-protein kinase PAK 6 (Homo sapiens) (UniProt Q9NQU5); assay: Inhibition of PAK6 at 10 uM
# [37] = test system: Serine/threonine-protein kinase B-raf (Homo sapiens), P15056 [V600E]; assay: Inhibition of BRAF V600E mutant at 10 uM; conditions: values are per cent of control
# [38] = molecular target: Epithelial discoidin domain-containing receptor 1 (Homo sapiens) (UniProt Q08345); assay: Inhibition of DDR1 at 10 uM; values are per cent of control
# [39] = molecular target: Vascular endothelial growth factor receptor 1 (Homo sapiens) (UniProt P17948); assay: Inhibition of FLT1 at 10 uM; values are per cent of control
# [40] = molecular target: Tyrosine-protein kinase ABL1 (Homo sapiens) (UniProt P00519); assay: Inhibition of phosphorylated ABL1 at 10 uM; conditions: values are per cent of control
# [41] = molecular target: Mitogen-activated protein kinase 6 (Homo sapiens) (UniProt Q16659); assay: Inhibition of ERK3 at 10 uM; conditions: values are per cent of control
# [42] = molecular target: Vascular endothelial growth factor receptor 3 (Homo sapiens) (UniProt P35916); assay: Inhibition of FLT4 at 10 uM; conditions: values are per cent of control
compound,measurement,setting,value
CCN1CCN(Cc2ccc(NC(=O)c3ccc(C)c(C#Cc4cnc5[nH]ccc5c4)c3)cc2C(F)(F)F)CC1,"residual binding, % of control",[1],78%
same,"level, % of control",[2],22%
same,"residual binding, % of control",[3],96%
same,"residual binding, % of control",[4],0.8%
same,"residual binding, % of control",[5],0.1%
same,"level, % of control",[6],90%
same,"residual binding, % of control",[7],0%
same,inhibition,[8],79%
same,"level, % of control",[9],3.5%
same,inhibition,[10],17%
same,"residual binding, % of control",[11],11%
same,"residual binding, % of control",[12],0.15%
same,"residual binding, % of control",[13],20%
same,"residual binding, % of control",[14],83%
same,"residual binding, % of control",[15],2.4%
same,"residual binding, % of control",[16],0.8%
same,"level, % of control",[17],0.15%
same,inhibition,[18],100%
same,"residual binding, % of control",[19],100%
same,"level, % of control",[20],65%
same,"residual binding, % of control",[21],1.6%
same,inhibition,[22],0%
same,inhibition,[23],78%
same,"residual binding, % of control",[24],51%
same,inhibition,[25],60%
same,inhibition,[26],8.2%
same,"residual binding, % of control",[27],0.15%
same,inhibition,[28],0%
same,"level, % of control",[29],0%
same,"residual binding, % of control",[30],24%
same,inhibition,[31],98%
same,"residual binding, % of control",[32],2%
same,inhibition,[33],0%
same,"level, % of control",[34],32%
same,"residual binding, % of control",[35],0.3%
same,inhibition,[36],85%
same,"residual binding, % of control",[37],0.1%
same,"level, % of control",[38],0%
same,"level, % of control",[39],0.8%
same,"residual binding, % of control",[40],0.05%
same,"residual binding, % of control",[41],100%
same,"residual binding, % of control",[42],0.1%
CCN1CCN(Cc2ccc(NC(=O)c3ccc(C)c(C#Cc4cccnc4)c3)cc2C(F)(F)F)CC1,"residual binding, % of control",[1],94%
same,"level, % of control",[2],40%
same,"residual binding, % of control",[3],94%
same,"residual binding, % of control",[4],1.2%
same,"residual binding, % of control",[5],0%
same,"level, % of control",[6],81%
same,"residual binding, % of control",[7],0%
same,inhibition,[8],67%
same,"level, % of control",[9],2.3%
same,inhibition,[10],7.2%
same,"residual binding, % of control",[11],12%
same,"residual binding, % of control",[12],0%
same,"residual binding, % of control",[13],100%
same,"residual binding, % of control",[14],75%
same,"residual binding, % of control",[15],2.8%
same,"residual binding, % of control",[16],1.6%
same,"level, % of control",[17],2.4%
same,inhibition,[18],83%
same,"residual binding, % of control",[19],100%
same,"level, % of control",[20],54%
same,"residual binding, % of control",[21],3%
same,inhibition,[22],0%
same,inhibition,[23],54%
same,"residual binding, % of control",[24],48%
same,inhibition,[25],48%
same,inhibition,[26],27%
same,"residual binding, % of control",[27],0.15%
same,inhibition,[28],0.05%
same,"level, % of control",[29],0%
same,"residual binding, % of control",[30],100%
same,inhibition,[31],85%
same,"residual binding, % of control",[32],7.4%
same,inhibition,[33],0.25%
same,"level, % of control",[34],24%
same,"residual binding, % of control",[35],0.45%
same,inhibition,[36],100%
same,"residual binding, % of control",[37],0.05%
same,"level, % of control",[38],0.05%
same,"level, % of control",[39],0.5%
same,"residual binding, % of control",[40],0%
same,"residual binding, % of control",[41],100%
same,"residual binding, % of control",[42],0%
